Reference: paper PMC5933747 (PLoS ONE, 2018)
pIC50: −log10 of the molar value. Where two headings read alike, the source gives them in different places.

What was measured:
Format in all cases: cell-based
human NaV1.7 = human NaV1.7 (Homo sapiens, UniProt Q15858); experiment: IonWorks Quattro (IWQ) electrophysiology, human NaV1.7
human NaV1.4 = human NaV1.4 (Homo sapiens, UniProt P35499); experiment: IonWorks Quattro (IWQ) electrophysiology, human NaV1.4
human NaV1.5 = human NaV1.5 (Homo sapiens, UniProt Q14524); experiment: IonWorks Quattro (IWQ) electrophysiology, human NaV1.5
[1] = read-out: Glu mutant IWQ IC50 NaV1.7
[2] = read-out: Glu mutant IWQ IC50 NaV1.4
[3] = read-out: Glu mutant IWQ IC50 NaV1.5
[4] = read-out: Ala mutant IWQ IC50 NaV1.7
[5] = read-out: Ala mutant IWQ IC50 NaV1.4
[6] = read-out: Ala mutant IWQ IC50 NaV1.5

Chain of human NaV1.4 (P35499 whole entry): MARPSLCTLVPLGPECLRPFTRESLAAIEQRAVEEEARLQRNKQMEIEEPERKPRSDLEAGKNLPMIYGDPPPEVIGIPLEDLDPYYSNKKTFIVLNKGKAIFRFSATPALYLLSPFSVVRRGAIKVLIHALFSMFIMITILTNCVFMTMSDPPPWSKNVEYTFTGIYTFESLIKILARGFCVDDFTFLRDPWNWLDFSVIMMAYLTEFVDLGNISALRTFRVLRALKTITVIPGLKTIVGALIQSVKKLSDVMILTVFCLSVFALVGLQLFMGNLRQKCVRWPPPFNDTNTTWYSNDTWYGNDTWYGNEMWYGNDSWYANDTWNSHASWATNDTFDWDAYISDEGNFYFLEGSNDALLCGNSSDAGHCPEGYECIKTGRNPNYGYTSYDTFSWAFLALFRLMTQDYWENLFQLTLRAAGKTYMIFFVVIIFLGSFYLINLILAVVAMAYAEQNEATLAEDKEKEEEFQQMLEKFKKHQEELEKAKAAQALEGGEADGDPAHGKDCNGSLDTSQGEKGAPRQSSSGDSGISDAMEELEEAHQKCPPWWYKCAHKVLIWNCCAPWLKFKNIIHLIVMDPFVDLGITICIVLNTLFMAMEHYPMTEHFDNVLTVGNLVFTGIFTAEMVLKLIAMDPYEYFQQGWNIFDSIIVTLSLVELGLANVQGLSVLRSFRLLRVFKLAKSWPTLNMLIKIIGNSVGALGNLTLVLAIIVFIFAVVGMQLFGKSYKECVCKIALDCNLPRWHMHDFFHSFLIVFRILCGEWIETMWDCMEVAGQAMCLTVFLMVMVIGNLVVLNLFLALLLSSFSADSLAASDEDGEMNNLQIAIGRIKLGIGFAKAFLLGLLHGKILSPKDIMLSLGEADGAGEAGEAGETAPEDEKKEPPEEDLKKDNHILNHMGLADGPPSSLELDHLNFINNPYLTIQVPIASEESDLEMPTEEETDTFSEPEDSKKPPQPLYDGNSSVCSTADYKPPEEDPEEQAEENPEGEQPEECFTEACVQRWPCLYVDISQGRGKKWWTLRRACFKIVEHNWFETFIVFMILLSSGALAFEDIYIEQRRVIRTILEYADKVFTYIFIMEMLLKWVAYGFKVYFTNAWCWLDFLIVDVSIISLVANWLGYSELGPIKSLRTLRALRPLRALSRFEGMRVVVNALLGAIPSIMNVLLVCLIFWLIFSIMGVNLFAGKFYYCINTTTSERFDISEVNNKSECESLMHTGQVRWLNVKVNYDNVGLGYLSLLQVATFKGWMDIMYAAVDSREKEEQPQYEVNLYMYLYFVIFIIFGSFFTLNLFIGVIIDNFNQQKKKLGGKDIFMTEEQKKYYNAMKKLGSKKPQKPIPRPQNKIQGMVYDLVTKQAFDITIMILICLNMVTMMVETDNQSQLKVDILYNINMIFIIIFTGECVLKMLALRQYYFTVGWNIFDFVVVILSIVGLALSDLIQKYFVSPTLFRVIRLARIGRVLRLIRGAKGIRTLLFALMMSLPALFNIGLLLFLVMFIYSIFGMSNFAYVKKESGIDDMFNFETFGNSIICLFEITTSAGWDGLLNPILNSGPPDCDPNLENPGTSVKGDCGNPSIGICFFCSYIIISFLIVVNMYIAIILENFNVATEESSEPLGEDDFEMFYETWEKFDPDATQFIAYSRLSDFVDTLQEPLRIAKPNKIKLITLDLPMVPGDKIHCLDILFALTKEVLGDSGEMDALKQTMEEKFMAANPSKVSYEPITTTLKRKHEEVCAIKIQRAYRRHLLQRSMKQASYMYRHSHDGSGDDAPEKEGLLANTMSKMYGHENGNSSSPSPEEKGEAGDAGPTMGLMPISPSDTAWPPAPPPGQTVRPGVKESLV
Chain of human NaV1.5 (Q14524 whole entry): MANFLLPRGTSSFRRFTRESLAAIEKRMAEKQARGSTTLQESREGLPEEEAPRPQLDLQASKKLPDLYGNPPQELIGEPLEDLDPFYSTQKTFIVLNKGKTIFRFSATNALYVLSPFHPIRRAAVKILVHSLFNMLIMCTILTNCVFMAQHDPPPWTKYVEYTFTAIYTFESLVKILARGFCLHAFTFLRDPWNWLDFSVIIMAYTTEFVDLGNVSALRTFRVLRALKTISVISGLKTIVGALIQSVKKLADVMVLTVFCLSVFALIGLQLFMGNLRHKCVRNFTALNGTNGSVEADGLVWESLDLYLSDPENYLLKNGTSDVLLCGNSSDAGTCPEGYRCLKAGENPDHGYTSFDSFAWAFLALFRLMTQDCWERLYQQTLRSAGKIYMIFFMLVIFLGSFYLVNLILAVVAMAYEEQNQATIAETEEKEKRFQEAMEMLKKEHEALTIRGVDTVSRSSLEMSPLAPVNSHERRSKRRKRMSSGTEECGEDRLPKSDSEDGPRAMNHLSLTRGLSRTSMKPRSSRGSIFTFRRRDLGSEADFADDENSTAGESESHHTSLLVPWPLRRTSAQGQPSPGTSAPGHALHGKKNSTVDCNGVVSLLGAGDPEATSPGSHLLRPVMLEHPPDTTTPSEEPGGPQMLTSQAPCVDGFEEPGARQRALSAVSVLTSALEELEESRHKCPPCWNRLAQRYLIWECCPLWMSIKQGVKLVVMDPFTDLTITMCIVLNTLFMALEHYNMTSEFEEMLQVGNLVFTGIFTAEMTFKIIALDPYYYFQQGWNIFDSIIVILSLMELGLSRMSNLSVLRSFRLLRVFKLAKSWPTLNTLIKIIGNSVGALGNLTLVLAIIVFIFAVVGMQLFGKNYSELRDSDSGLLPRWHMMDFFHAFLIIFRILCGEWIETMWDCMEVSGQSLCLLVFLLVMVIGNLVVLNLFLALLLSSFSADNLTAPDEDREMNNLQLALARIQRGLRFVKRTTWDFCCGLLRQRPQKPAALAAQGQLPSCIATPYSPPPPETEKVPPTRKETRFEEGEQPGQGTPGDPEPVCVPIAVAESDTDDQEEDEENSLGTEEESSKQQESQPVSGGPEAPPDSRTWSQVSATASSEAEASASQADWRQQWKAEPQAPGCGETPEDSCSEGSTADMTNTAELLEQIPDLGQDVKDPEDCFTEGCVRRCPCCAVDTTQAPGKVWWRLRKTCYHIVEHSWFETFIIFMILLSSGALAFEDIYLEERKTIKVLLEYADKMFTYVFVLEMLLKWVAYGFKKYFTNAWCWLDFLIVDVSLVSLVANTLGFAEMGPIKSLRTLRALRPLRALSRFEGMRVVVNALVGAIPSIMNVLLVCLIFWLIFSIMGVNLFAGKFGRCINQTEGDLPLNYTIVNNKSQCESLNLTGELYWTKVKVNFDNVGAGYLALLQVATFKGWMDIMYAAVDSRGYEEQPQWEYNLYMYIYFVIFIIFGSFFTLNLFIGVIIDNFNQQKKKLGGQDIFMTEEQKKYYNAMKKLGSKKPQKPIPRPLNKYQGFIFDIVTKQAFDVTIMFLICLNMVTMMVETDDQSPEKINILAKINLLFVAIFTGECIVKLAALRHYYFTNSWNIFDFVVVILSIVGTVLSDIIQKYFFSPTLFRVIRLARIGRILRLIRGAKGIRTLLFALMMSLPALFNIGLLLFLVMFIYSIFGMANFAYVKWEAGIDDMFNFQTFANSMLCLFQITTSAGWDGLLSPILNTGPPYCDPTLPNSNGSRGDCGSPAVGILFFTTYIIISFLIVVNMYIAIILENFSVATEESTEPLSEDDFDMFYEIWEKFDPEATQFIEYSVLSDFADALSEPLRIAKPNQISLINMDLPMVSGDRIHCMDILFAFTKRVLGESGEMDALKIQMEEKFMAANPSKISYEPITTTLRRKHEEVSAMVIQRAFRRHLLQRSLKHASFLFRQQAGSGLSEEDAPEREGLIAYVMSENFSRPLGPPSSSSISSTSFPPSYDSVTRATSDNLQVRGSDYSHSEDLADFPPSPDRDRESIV

| SMILES | pIC50 (human NaV1.7; [1]) | pIC50 (human NaV1.4; [2]) | pIC50 (human NaV1.5; [3]) | pIC50 (human NaV1.7; [4]) | pIC50 (human NaV1.4; [5]) | pIC50 (human NaV1.5; [6]) | pIC50 (human NaV1.5; human, read-out: Glu mutant IWQ IC50 NaV1.5) |
| --- | --- | --- | --- | --- | --- | --- | --- |
| CC[C@H](C)[C@H](NC(=O)[C@@H](NC(=O)[C@H](CCCCN)NC(=O)[C@H](CCCNC(=N)N)NC(=O)[C@@H]1CSSC[C@@H]2NC(=O)[C@H](C)NC(=O)[C@H](CCCNC(=N)N)NC(=O)[C@H](CCCCN)NC(=O)[C@H](CO)NC(=O)[C@H](CC(=O)O)NC(=O)[C@@H]3CSSC[C@H](NC(=O)[C@H](CCCNC(=N)N)NC(=O)[C@H](CC(C)C)NC(=O)CNC(=O)[C@H](CCC(=O)O)NC(=O)[C@H](CSSC[C@H](NC(=O)[C@@H](N)Cc4ccc(O)cc4)C(=O)N[C@@H](CCC(N)=O)C(=O)N[C@@H](CCCCN)C(=O)N[C@@H](Cc4c[nH]c5ccccc45)C(=O)N[C@@H](CCSC)C(=O)N[C@@H](Cc4c[nH]c5ccccc45)C(=O)N[C@@H]([C@@H](C)O)C(=O)N3)NC2=O)C(=O)N[C@@H](CCCCN)C(=O)N[C@@H](CC(C)C)C(=O)N[C@@H](CCC(=O)O)C(=O)N1)[C@@H](C)CC)C(N)=O [W24 Glu mutant] | 5.00 | < 5.00 | < 5.00 | – | – | – | – |
| CC[C@H](C)[C@H](NC(=O)[C@@H](NC(=O)[C@H](CCCCN)NC(=O)[C@H](C)NC(=O)[C@@H]1CSSC[C@@H]2NC(=O)[C@H](C)NC(=O)[C@H](CCCNC(=N)N)NC(=O)[C@H](CCCCN)NC(=O)[C@H](CO)NC(=O)[C@H](CC(=O)O)NC(=O)[C@@H]3CSSC[C@H](NC(=O)[C@H](CCCNC(=N)N)NC(=O)[C@H](CC(C)C)NC(=O)CNC(=O)[C@H](CCC(=O)O)NC(=O)[C@H](CSSC[C@H](NC(=O)[C@@H](N)Cc4ccc(O)cc4)C(=O)N[C@@H](CCC(N)=O)C(=O)N[C@@H](CCCCN)C(=O)N[C@@H](Cc4c[nH]c5ccccc45)C(=O)N[C@@H](CCSC)C(=O)N[C@@H](Cc4c[nH]c5ccccc45)C(=O)N[C@@H]([C@@H](C)O)C(=O)N3)NC2=O)C(=O)N[C@@H](CCCCN)C(=O)N[C@@H](CC(C)C)C(=O)N[C@@H](Cc2c[nH]c3ccccc23)C(=O)N1)[C@@H](C)CC)C(N)=O [R26 Ala mutant] | – | – | – | 5.62 | < 5.00 | < 5.00 | – |
| CC[C@H](C)[C@H](NC(=O)[C@@H](NC(=O)[C@H](CCCCN)NC(=O)[C@H](CCCNC(=N)N)NC(=O)[C@@H]1CSSC[C@@H]2NC(=O)[C@H](C)NC(=O)[C@H](CCCNC(=N)N)NC(=O)[C@H](CCCCN)NC(=O)[C@H](CO)NC(=O)[C@H](CC(=O)O)NC(=O)[C@@H]3CSSC[C@H](NC(=O)[C@H](CCCNC(=N)N)NC(=O)[C@H](CC(C)C)NC(=O)CNC(=O)[C@H](CCC(=O)O)NC(=O)[C@H](CSSC[C@H](NC(=O)[C@@H](N)Cc4ccc(O)cc4)C(=O)N[C@@H](C)C(=O)N[C@@H](CCCCN)C(=O)N[C@@H](Cc4c[nH]c5ccccc45)C(=O)N[C@@H](CCSC)C(=O)N[C@@H](Cc4c[nH]c5ccccc45)C(=O)N[C@@H]([C@@H](C)O)C(=O)N3)NC2=O)C(=O)N[C@@H](CCCCN)C(=O)N[C@@H](CC(C)C)C(=O)N[C@@H](Cc2c[nH]c3ccccc23)C(=O)N1)[C@@H](C)CC)C(N)=O [Q3 Ala mutant] | – | – | – | 6.42 | 5.94 | < 5.00 | – |
| CC[C@H](C)[C@H](NC(=O)[C@@H](NC(=O)[C@H](CCCCN)NC(=O)[C@H](CCCNC(=N)N)NC(=O)[C@@H]1CSSC[C@@H]2NC(=O)[C@H](C)NC(=O)[C@H](CCCNC(=N)N)NC(=O)[C@H](CCCCN)NC(=O)[C@H](CO)NC(=O)[C@H](C)NC(=O)[C@@H]3CSSC[C@H](NC(=O)[C@H](CCCNC(=N)N)NC(=O)[C@H](CC(C)C)NC(=O)CNC(=O)[C@H](CCC(=O)O)NC(=O)[C@H](CSSC[C@H](NC(=O)[C@@H](N)Cc4ccc(O)cc4)C(=O)N[C@@H](CCC(N)=O)C(=O)N[C@@H](CCCCN)C(=O)N[C@@H](Cc4c[nH]c5ccccc45)C(=O)N[C@@H](CCSC)C(=O)N[C@@H](Cc4c[nH]c5ccccc45)C(=O)N[C@@H]([C@@H](C)O)C(=O)N3)NC2=O)C(=O)N[C@@H](CCCCN)C(=O)N[C@@H](CC(C)C)C(=O)N[C@@H](Cc2c[nH]c3ccccc23)C(=O)N1)[C@@H](C)CC)C(N)=O [D10 Ala mutant] | – | – | – | 6.46 | 6.04 | < 5.00 | – |
| CC[C@H](C)[C@H](NC(=O)[C@@H](NC(=O)[C@H](CCCCN)NC(=O)[C@H](CCCNC(=N)N)NC(=O)[C@@H]1CSSC[C@@H]2NC(=O)[C@H](C)NC(=O)[C@H](CCCNC(=N)N)NC(=O)[C@H](CCCCN)NC(=O)[C@H](CO)NC(=O)[C@H](CC(=O)O)NC(=O)[C@@H]3CSSC[C@H](NC(=O)[C@H](CCCNC(=N)N)NC(=O)[C@H](CC(C)C)NC(=O)CNC(=O)[C@H](CCC(=O)O)NC(=O)[C@H](CSSC[C@H](NC(=O)[C@@H](N)Cc4ccc(O)cc4)C(=O)N[C@@H](CCC(N)=O)C(=O)N[C@@H](CCCCN)C(=O)N[C@@H](Cc4c[nH]c5ccccc45)C(=O)N[C@@H](CCSC)C(=O)N[C@@H](Cc4c[nH]c5ccccc45)C(=O)N[C@@H]([C@@H](C)O)C(=O)N3)NC2=O)C(=O)N[C@@H](CCCCN)C(=O)N[C@@H](CC(C)C)C(=O)N[C@@H](C)C(=O)N1)[C@@H](C)CC)C(N)=O [W24 Ala mutant] | – | – | – | < 5.00 | < 5.00 | < 5.00 | – |
| CC[C@H](C)[C@H](NC(=O)[C@@H](NC(=O)[C@H](CCCCN)NC(=O)[C@H](CCC(=O)O)NC(=O)[C@@H]1CSSC[C@@H]2NC(=O)[C@H](C)NC(=O)[C@H](CCCNC(=N)N)NC(=O)[C@H](CCCCN)NC(=O)[C@H](CO)NC(=O)[C@H](CC(=O)O)NC(=O)[C@@H]3CSSC[C@H](NC(=O)[C@H](CCCNC(=N)N)NC(=O)[C@H](CC(C)C)NC(=O)CNC(=O)[C@H](CCC(=O)O)NC(=O)[C@H](CSSC[C@H](NC(=O)[C@@H](N)Cc4ccc(O)cc4)C(=O)N[C@@H](CCC(N)=O)C(=O)N[C@@H](CCCCN)C(=O)N[C@@H](Cc4c[nH]c5ccccc45)C(=O)N[C@@H](CCSC)C(=O)N[C@@H](Cc4c[nH]c5ccccc45)C(=O)N[C@@H]([C@@H](C)O)C(=O)N3)NC2=O)C(=O)N[C@@H](CCCCN)C(=O)N[C@@H](CC(C)C)C(=O)N[C@@H](Cc2c[nH]c3ccccc23)C(=O)N1)[C@@H](C)CC)C(N)=O [R26 Glu mutant] | < 5.00 | < 5.00 | < 5.00 | – | – | – | – |
| CC[C@H](C)[C@H](NC(=O)[C@@H](NC(=O)[C@H](CCCCN)NC(=O)[C@H](CCCNC(=N)N)NC(=O)[C@@H]1CSSC[C@@H]2NC(=O)[C@H](C)NC(=O)[C@H](CCCNC(=N)N)NC(=O)[C@H](CCC(=O)O)NC(=O)[C@H](CO)NC(=O)[C@H](CC(=O)O)NC(=O)[C@@H]3CSSC[C@H](NC(=O)[C@H](CCCNC(=N)N)NC(=O)[C@H](CC(C)C)NC(=O)CNC(=O)[C@H](CCC(=O)O)NC(=O)[C@H](CSSC[C@H](NC(=O)[C@@H](N)Cc4ccc(O)cc4)C(=O)N[C@@H](CCC(N)=O)C(=O)N[C@@H](CCCCN)C(=O)N[C@@H](Cc4c[nH]c5ccccc45)C(=O)N[C@@H](CCSC)C(=O)N[C@@H](Cc4c[nH]c5ccccc45)C(=O)N[C@@H]([C@@H](C)O)C(=O)N3)NC2=O)C(=O)N[C@@H](CCCCN)C(=O)N[C@@H](CC(C)C)C(=O)N[C@@H](Cc2c[nH]c3ccccc23)C(=O)N1)[C@@H](C)CC)C(N)=O [K12 Glu mutant] | 6.12 | < 5.00 | < 5.00 | – | – | – | – |
| CC[C@H](C)[C@H](NC(=O)[C@@H](NC(=O)[C@H](CCCCN)NC(=O)[C@H](CCCNC(=N)N)NC(=O)[C@@H]1CSSC[C@@H]2NC(=O)[C@H](C)NC(=O)[C@H](CCCNC(=N)N)NC(=O)[C@H](CCCCN)NC(=O)[C@H](CO)NC(=O)[C@H](CC(=O)O)NC(=O)[C@@H]3CSSC[C@H](NC(=O)[C@H](CCCNC(=N)N)NC(=O)[C@H](CC(C)C)NC(=O)[C@H](CCC(=O)O)NC(=O)[C@H](CCC(=O)O)NC(=O)[C@H](CSSC[C@H](NC(=O)[C@@H](N)Cc4ccc(O)cc4)C(=O)N[C@@H](CCC(N)=O)C(=O)N[C@@H](CCCCN)C(=O)N[C@@H](Cc4c[nH]c5ccccc45)C(=O)N[C@@H](CCSC)C(=O)N[C@@H](Cc4c[nH]c5ccccc45)C(=O)N[C@@H]([C@@H](C)O)C(=O)N3)NC2=O)C(=O)N[C@@H](CCCCN)C(=O)N[C@@H](CC(C)C)C(=O)N[C@@H](Cc2c[nH]c3ccccc23)C(=O)N1)[C@@H](C)CC)C(N)=O [G18 Glu mutant] | 6.78 | 5.91 | < 5.00 | – | – | – | – |
| CC[C@H](C)[C@H](NC(=O)[C@@H](NC(=O)[C@H](CCCCN)NC(=O)[C@H](CCCNC(=N)N)NC(=O)[C@@H]1CSSC[C@@H]2NC(=O)[C@H](C)NC(=O)[C@H](CCCNC(=N)N)NC(=O)[C@H](CCCCN)NC(=O)[C@H](CO)NC(=O)[C@H](CC(=O)O)NC(=O)[C@@H]3CSSC[C@H](NC(=O)[C@H](CCCNC(=N)N)NC(=O)[C@H](CC(C)C)NC(=O)CNC(=O)[C@H](CCC(=O)O)NC(=O)[C@H](CSSC[C@H](NC(=O)[C@@H](N)Cc4ccc(O)cc4)C(=O)N[C@@H](CCC(N)=O)C(=O)N[C@@H](C)C(=O)N[C@@H](Cc4c[nH]c5ccccc45)C(=O)N[C@@H](CCSC)C(=O)N[C@@H](Cc4c[nH]c5ccccc45)C(=O)N[C@@H]([C@@H](C)O)C(=O)N3)NC2=O)C(=O)N[C@@H](CCCCN)C(=O)N[C@@H](CC(C)C)C(=O)N[C@@H](Cc2c[nH]c3ccccc23)C(=O)N1)[C@@H](C)CC)C(N)=O [K4 Ala mutant] | – | – | – | 6.38 | 5.49 | < 5.00 | – |
| CC[C@H](C)[C@H](NC(=O)[C@@H](NC(=O)[C@H](CCCCN)NC(=O)[C@H](CCCNC(=N)N)NC(=O)[C@@H]1CSSC[C@@H]2NC(=O)[C@H](C)NC(=O)[C@H](CCCNC(=N)N)NC(=O)[C@H](CCCCN)NC(=O)[C@H](CO)NC(=O)[C@H](CC(=O)O)NC(=O)[C@@H]3CSSC[C@H](NC(=O)[C@H](CCC(=O)O)NC(=O)[C@H](CC(C)C)NC(=O)CNC(=O)[C@H](CCC(=O)O)NC(=O)[C@H](CSSC[C@H](NC(=O)[C@@H](N)Cc4ccc(O)cc4)C(=O)N[C@@H](CCC(N)=O)C(=O)N[C@@H](CCCCN)C(=O)N[C@@H](Cc4c[nH]c5ccccc45)C(=O)N[C@@H](CCSC)C(=O)N[C@@H](Cc4c[nH]c5ccccc45)C(=O)N[C@@H]([C@@H](C)O)C(=O)N3)NC2=O)C(=O)N[C@@H](CCCCN)C(=O)N[C@@H](CC(C)C)C(=O)N[C@@H](Cc2c[nH]c3ccccc23)C(=O)N1)[C@@H](C)CC)C(N)=O [R20 Glu mutant] | 6.66 | 5.74 | – | – | – | – | < 5.30 |
